Laboratory results taken from patent publication US9708336B2, “Metallo-beta-lactamase inhibitors” (priority 2014, dated 2017).
Like-named read-outs stand apart in the source and are kept apart here.

What was measured:
NDM-1 = NDM-1 (Klebsiella pneumoniae, UniProt C7C422); assay: biochemical; format: biochemical; settings: read-out: NDM-1 IC50
IMP-1 = IMP-1 (Serratia marcescens, UniProt P52699); assay: biochemical; format: biochemical; settings: read-out: IMP-1 IC50
VIM-1 = VIM-1 (Pseudomonas aeruginosa (strain ATCC 15692 / DSM 22644 / CIP 104116 / JCM 14847 / LMG 12228 / 1C / PRS 101 / PAO1), UniProt A0A0F7KYQ8); assay: Enzyme activity: determination of IC50, fluorescence assay with CCF2-FA substrate (VIM-1); format: biochemical
[1] = system: Escherichia coli expressing NDM-1 (CLB30016); assay: Antibiotic potentiation activity: synergistic concentration (MITC95) with imipenem, OD600 growth; format: cell-based; settings: for Escherichia coli expressing NDM-1 (CLB 30016) MITC95: concentration giving 95% inhibition of bacterial growth
In short: (§1)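 Absorbance after a 22–24 h, 35 °C incubation served as the read-out. Wells held bacteria (saline suspension diluted 1:100 into 1.1× CAMHB), imipenem at 4 μg/ml final or optionally 1 μg/ml, and test compound.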

[2] = system: Klebsiella pneumoniae expressing VIM-1 (IHMA599644); assay: as above; format: cell-based; settings: for Klebsiella pneumoniae expressing VIM-1 (IHMA 599644) MITC95: concentration giving 95% inhibition of bacterial growth
In short: as §1

[3] = system: Serratia marcescens expressing IMP-1 (CL5741); assay: as above; format: cell-based; settings: for Serratia marcescens expressing IMP-1 (CL5741) MITC95: concentration giving 95% inhibition of bacterial growth
In short: as §1

[4] = NDM-1 enzyme, CCF2-FA substrate
[5] = IMP-1 enzyme, CCF2-FA substrate
[6] = VIM-1 IC50, VIM-1 enzyme, CCF2-FA substrate
[7] = (CLB30016, NDM-1), 95% growth inhibition
[8] = Klebsiella pneumoniae IHMA599644 (VIM-1), 95% growth inhibition
[9] = Serratia marcescens CL5741 (IMP-1), 95% growth inhibition
[10] = VIM-1 enzyme, CCF2-FA substrate, read-out: VIM-1 IC50
[11] = fluorescence assay with CCF2-FA substrate
[12] = fluorescence assay with CCF2-FA substrate, read-out: VIM-1 IC50
[13] = NDM-1 enzyme, CCF2-FA fluorescence assay
[14] = IMP-1 enzyme, CCF2-FA fluorescence assay
[15] = VIM-1 enzyme, CCF2-FA fluorescence assay, read-out: VIM-1 IC50
[16] = Escherichia coli expressing NDM-1 (CLB30016), 95% growth inhibition
[17] = Klebsiella pneumoniae expressing VIM-1 (IHMA599644), 95% growth inhibition
[18] = Serratia marcescens expressing IMP-1 (CL5741), 95% growth inhibition

IMP-1, sequence (P52699 whole entry, looked up): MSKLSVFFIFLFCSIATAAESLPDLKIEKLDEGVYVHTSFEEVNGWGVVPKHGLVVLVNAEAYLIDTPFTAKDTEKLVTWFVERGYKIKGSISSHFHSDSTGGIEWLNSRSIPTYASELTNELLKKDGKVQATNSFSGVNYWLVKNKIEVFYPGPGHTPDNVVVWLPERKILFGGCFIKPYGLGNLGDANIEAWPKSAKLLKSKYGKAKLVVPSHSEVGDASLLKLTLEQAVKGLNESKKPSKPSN
NDM-1, sequence (C7C422 whole entry, looked up, species assumed): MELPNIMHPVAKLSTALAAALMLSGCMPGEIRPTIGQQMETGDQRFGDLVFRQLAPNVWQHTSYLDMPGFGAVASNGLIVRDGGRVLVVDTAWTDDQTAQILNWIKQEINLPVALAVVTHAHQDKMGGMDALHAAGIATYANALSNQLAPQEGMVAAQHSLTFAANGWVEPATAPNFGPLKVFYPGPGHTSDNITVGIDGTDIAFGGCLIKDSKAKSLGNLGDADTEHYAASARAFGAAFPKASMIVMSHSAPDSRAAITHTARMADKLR

| SMILES | IC50 (NDM-1; [4]) [nM] | IC50 (IMP-1; [5]) [nM] | Escherichia coli MITC95 [1, 7] [µM] | Klebsiella pneumoniae MITC95 [2, 8] [µM] | Serratia marcescens MITC95 [3, 9] [µM] | IC50 (NDM-1; [13]) [nM] | IC50 (IMP-1; [14]) [nM] | IC50 (VIM-1; [15]) [nM] | Escherichia coli MITC95 [1, 16] [µM] | Klebsiella pneumoniae MITC95 [2, 17] [µM] | Serratia marcescens MITC95 [3, 18] [µM] | also measured |
| --- | --- | --- | --- | --- | --- | --- | --- | --- | --- | --- | --- | --- |
| NS(=O)(=O)c1cccc(-c2ccc(N3CCC3CO)nc2)c1-c1nnn[nH]1 (stereo in doubt) [Example 636, 3-[6-[(2S)-2-(hydroxymethyl)azetidin-1-yl]-3-pyridyl]-2-(1H-tetrazol-5-yl)benzenesulfonamide] | 1.54 | 37.2 | 0.3906 | >200 | 4.688 |  |  |  |  |  |  | IC50 (VIM-1; [6]): 88.9 nM |
| NCCC1CCC(N[C@H]2CC[C@H](c3ccc(C(F)(F)F)c(S(N)(=O)=O)c3-c3nnn[nH]3)CC2)CC1 (stereo partly drawn) [Example 705, 3-(4-{[4-(2-aminoethyl)cyclohexyl]a-mino}cyclohexyl)-2-(1H-tetrazol-5-yl)-6-(trifluoromethyl)benzene sulfonamide] | 18.2 | 61.1 | 2.344 | 12.5 | 4.688 |  |  |  |  |  |  | IC50 (VIM-1; [10]): 5.7 nM |
| NS(=O)(=O)c1cccc(-c2ccc(N3CCC(O)C3)nc2)c1-c1nnn[nH]1 (stereo not drawn) [Example 633, 3-[6-(3-hydroxypyrrolidin-1-yl)-3-pyridyl]-2-(1H-tetrazol-5-yl)benzenesulfonamide] | 4.88 | 66.4 | 0.125 | 37.5 | 4.833 |  |  |  |  |  |  | IC50 (VIM-1; [10]): 120 nM |
| NC1CCC(N[C@H]2CC[C@H](c3ccc(C(F)(F)F)c(S(N)(=O)=O)c3-c3nnn[nH]3)CC2)C1 (stereo partly drawn) [Example 703, 3-{4-[(3-aminocyclopentyl)amino]cyclohexyl}-2-(1H-tetrazol-5-yl)-6-(trifluoromethyl)benzene sulfonamide] | 6.14 | 38 | 0.3906 | 12.5 | 3.125 |  |  |  |  |  |  | IC50 (VIM-1; [6]): 8.38 nM |
| NS(=O)(=O)c1c(C(F)(F)F)ccc(-c2ccc(C3CCCN3)cc2)c1-c1nnn[nH]1 (stereo not drawn) [Example 716, 4′-pyrrolidin-2-yl-2-(1H-tetrazol-5-yl)-4-(trifluoromethyl)biphenyl-3-sulfonamide] | 8.07 | 5.43 | 6.25 | 25 | 3.125 |  |  |  |  |  |  | IC50 (VIM-1; [6]): 2.79 nM |
| CC(C)Cc1cccc(S(N)(=O)=O)c1-c1nn[nH]n1 [Example 167, 3-isobutyl-2-(2H-tetrazol-5-yl)benzenesulfonamide] |  |  |  |  |  |  |  |  |  |  |  | IC50 (NDM-1; [11]): 12.4 nM; IC50 (IMP-1; [11]): 260 nM; IC50 (VIM-1; [12]): 1030 nM; Escherichia coli expressing NDM-1 (CLB 30016) MITC95 [1]: 1.563 µM; Klebsiella pneumoniae expressing VIM-1 (IHMA 599644) MITC95 [2]: 200 µM; Serratia marcescens expressing IMP-1 (CL5741) MITC95 [3]: 9.375 µM |
| C[N+]1(C)CCC(c2ccc(-c3ccc(C(F)(F)F)c(S(N)(=O)=O)c3-c3nn[nH]n3)cc2)C1 (stereo not drawn) [Example 444, 1,1-dimethyl-3-(3′-sulfamoyl-2′-(2H-tetrazol-5-yl)-4′-(trifluoromethyl)-[1,1′-biphenyl]-4-yl)pyrrolidin-1-ium] |  |  |  |  |  | 2.5 | 3.27 | 1.35 | 2.344 | 4.688 | 0.3906 |  |
| N=C(N)N[C@H]1CC[C@H](c2ccc(C(F)(F)F)c(S(N)(=O)=O)c2-c2nnn[nH]2)CC1 [Example 823, 1-[4-[3-sulfamoyl-2-(1H-tetrazol-5-yl)-4-(trifluoromethyl)phenyl]cyclohexyl] guanidine] |  |  |  |  |  |  |  |  |  |  |  | IC50 (NDM-1; [11]): 17.5 nM; IC50 (IMP-1; [11]): 25.4 nM; IC50 (VIM-1; [12]): 0.666 nM; Escherichia coli MITC95 ([1]; CLB30016 (NDM-1), 95% inhibition of bacterial growth): 1.172 µM; Klebsiella pneumoniae MITC95 ([2]; IHMA599644 (VIM-1), 95% inhibition of bacterial growth): 1.172 µM; Serratia marcescens MITC95 ([3]; CL5741 (IMP-1), 95% inhibition of bacterial growth): 0.3906 µM |
| NS(=O)(=O)c1cccc(-c2ccc3cnccc3c2)c1-c1nnn[nH]1 [Example 408, 3-(6-isoquinolyl)-2-(1H-tetrazol-5-yl)benzenesulfonamide] |  |  |  |  |  | 1.38 | 84.3 | 14.9 | 0.3906 | 75 | 4.688 |  |
| NCc1nccc2cc(-c3cccc(S(N)(=O)=O)c3-c3nn[nH]n3)ccc12 [Example 280, 3-(1-(aminomethyl)isoquinolin-6-yl)-2-(2H-tetrazol-5-yl)benzenesulfonamide] |  |  |  |  |  | 1.44 | 15.8 |  | 0.5859 | 3.125 | 6.25 | IC50 (VIM-1; VIM-1 IC50, VIM-1 enzyme, CCF2-FA fluorescence assay): 20.4 nM |
| Cc1cc(N)ncc1Cc1cccc(S(N)(=O)=O)c1-c1nn[nH]n1 [Example 573, 3-((6-amino-4-methylpyridin-3-yl)methyl)-2-(2H-tetrazol-5-yl)benzenesulfonamide] | 38.6 | 668 | 0.7813 | 12.5 | 12.5 |  |  |  |  |  |  | IC50 (VIM-1; [10]): 41.4 nM |
| Nc1ncc(-c2ccc(C(F)(F)F)c(S(N)(=O)=O)c2-c2nnn[nH]2)cc1F [Example 476, 3-(6-amino-5-fluoro-3-pyridyl)-2-(1H-tetrazol-5-yl)-6-(trifluoromethyl)benzenesulfonamide] |  |  |  |  |  | 1.79 | 3.98 | 0.263 | 1.563 | 1.563 | 0.5859 |  |
| NCC1COc2ccc(-c3ccc(C(F)(F)F)c(S(N)(=O)=O)c3-c3nnn[nH]3)cc21 (stereo not drawn) [Example 733, 3-[3-(aminomethyl)-2,3-dihydro-1-benzofuran-5-yl]-2-(1H-tetrazol-5-yl)-6-(trifluoromethyl)benzenesulfon-amide] | 33.5 | 34.3 | 12.5 | 6.25 | 25 |  |  |  |  |  |  | IC50 (VIM-1; [10]): 1.47 nM |
| NC(=O)C1CCN(Cc2ccc(-c3cccc(S(N)(=O)=O)c3-c3nnn[nH]3)cc2)C1 (stereo not drawn) [Example 337, 1-((3′-sulfamoyl-2′-(1H-tetrazol-5-yl)-[1,1′-biphenyl]-4-yl)methyl)pyrrolidine-3-carboxamide] |  |  |  |  |  | 4.38 | 69.8 | 321 | 0.3906 | 75 | 2.344 |  |
| NS(=O)(=O)c1cccc(-c2ccc(CN3CCC3C(=O)O)cc2)c1-c1nnn[nH]1 (stereo not drawn) [Example 378, 1-{[3′-sulfamoyl-2′-(1H-tetrazol-5-yl)biphenyl-4-yl]methyl}azetidine-2-carboxylic acid] |  |  |  |  |  | 24.6 | 262 | 407 | 3.125 | 50 | 6.25 |  |
| Nc1nc2ccc(-c3ccc(C(F)(F)F)c(S(N)(=O)=O)c3-c3nnn[nH]3)cc2[nH]1 [Example 552, 3-(2-amino-3H-benzimidazol-5-yl)-2-(1H-tetrazol-5-yl)-6-(trifluoromethyl)benzenesulfonamide] | 1.32 | 7.2 | 0.3906 | 1.563 | 1.563 |  |  |  |  |  |  | IC50 (VIM-1; [6]): 0.262 nM |
| NS(=O)(=O)c1cccc(-c2ccc(CNCCO)cc2)c1-c1nnn[nH]1 [Example 390, 4′-{[(2-hydroxyethyl)amino]methyl}-2-(1H-tetrazol-5-yl)biphenyl-3-sulfonamide] |  |  |  |  |  | 12.2 | 483 | 222 | 0.7813 | 62.5 | 6.25 |  |
| CC(CCCN)N[C@H]1CC[C@H](c2ccc(C(F)(F)F)c(S(N)(=O)=O)c2-c2nnn[nH]2)CC1 (stereo partly drawn) [Example 688, 3-{4-[(4-amino-1-methylbutyl)amino]cyclo-hexyl)-2-(1H-tetrazol-5-yl)-6-(trifluoromethyl)benzene sulfonamide] | 44.1 | 158 | 1.563 | 12.5 | 6.25 |  |  |  |  |  |  | IC50 (VIM-1; [10]): 13.4 nM |
| Nc1[nH]nc2cc(-c3cccc(S(N)(=O)=O)c3-c3nnn[nH]3)ccc12 [Example 131, 3-(3-amino-2H-indazol-6-yl)-2-(1H-tetrazol-5-yl)benzenesulfonamide] |  |  |  |  |  |  |  |  |  |  |  | IC50 (NDM-1; [11]): 0.7 nM; IC50 (IMP-1; [11]): 187 nM; IC50 (VIM-1; [12]): 16.9 nM; Escherichia coli expressing NDM-1 (CLB 30016) MITC95 [1]: 0.7813 µM; Klebsiella pneumoniae expressing VIM-1 (IHMA 599644) MITC95 [2]: 3.125 µM; Serratia marcescens expressing IMP-1 (CL5741) MITC95 [3]: 3.125 µM |
